Measurements from US11078171B2, “Non-ATP/catalytic site p38 mitogen activated protein kinase inhibitors” (University of Maryland, Baltimore, priority 2018, dated 2021).

Legend:
HMVECLs [1] = assay: MTS cytotoxicity assay; assay type: cell-based, human; conditions: 100 μM for 48 h
Experimental: (§1) Cytotoxicity of HMVECL exposed to 10-100 μM of each compound is analyzed by MTS assay (Promega), LDH release (Promega), and immunoblotting for activated caspase-3 (Cell Signaling).
Cytotoxicity assay: Cytotoxicity was monitored in parallel HMVEC-L monolayers established in 96-well culture plates using a colorimetric assay that measured reduction of 3-(4,5-dimethylthiazol-2-yl)-5-(3-carboxymethoxyphenyl)-2-(4-sulfophenyl)-2H-tetrazolium (MTS) to a formazan dye (CellTiter 96™; Promega; Madison, Wis.) according to the manufacturer's protocol and quantifying product formation by measuring absorption at 490 nm.

mutated p38α = target: T1, mutated p38α (Homo sapiens, UniProt Q16539, H107T/K165R/L108F/R49K); assay: STD-NMR with mutated p38α; assay type: binding; conditions: 200 μM UM101, 5 μM protein
T1 construct: made in house; host or cells: E. coli BL21
T1 sequence (Q16539 whole entry R49K/H107T/L108F/K165R): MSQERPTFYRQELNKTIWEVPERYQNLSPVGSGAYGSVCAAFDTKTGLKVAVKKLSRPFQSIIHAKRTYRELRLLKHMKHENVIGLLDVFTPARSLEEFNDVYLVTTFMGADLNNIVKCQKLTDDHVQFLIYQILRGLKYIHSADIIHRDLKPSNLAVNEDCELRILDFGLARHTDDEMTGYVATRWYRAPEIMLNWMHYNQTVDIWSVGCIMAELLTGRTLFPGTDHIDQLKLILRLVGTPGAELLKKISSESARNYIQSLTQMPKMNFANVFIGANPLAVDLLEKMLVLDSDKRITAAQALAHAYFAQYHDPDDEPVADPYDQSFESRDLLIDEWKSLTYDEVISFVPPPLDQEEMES
Experimental: (§2) Saturation Transfer Difference Nuclear Magnetic Resonance (STD-NMR): A 40 mM stock solution of UM101 was made in d6-DMSO. STD-NMR samples contained 150 mM NaCl, 50 mM phosphate, pH 7,200 μM UM101, and 5 μM p38 protein in D20. Spectra were recorded on an Agilent DD2 500-MHz spectrometer equipped with a 5-mm inverse HFCN probe head at 300 K. During each transient, the protein was saturated with a series of 58 […]-shaped pulses (50 ms, 1 ms delay between pulses) using the vendor-supplied STD-ES pulse sequence, for a total saturation time of 3 seconds. The on-resonance irradiation of protein was done at 0.5 ppm and off-resonance irradiation at 30 ppm. The vendor-supplied WATERGATE pulse sequence was used to suppress the water signal in the STD spectrum. The on-resonance and off-resonance pulse sequences were subtracted internally. A total of 16,384 transients were collected for each STD experiment with a 1 second delay between acquisitions, 6000 Hz spectral width, and 1.3 second acquisition time.
(§3) Selective binding of UM101 to the CADD-targeted pocket in p38α was confirmed using Saturation Transfer Difference (STD)-NMR. The peaks in the 1D spectrum are labeled according to tentative peak assignments of UM101 in aqueous form, based on assignments of UM101 in 2 mM d6-DMSO, which were obtained from the use of 1D proton and C13 and 2D-HMBC experiments. […]

[2] = tested on: MK2 phosphorylation in anisomycin-stimulated HeLa cells; assay: Inhibition of substrate phosphorylation, phospho-MK2 immunoblot; assay type: cell-based, human; conditions: 50 μM, 30 min pretreatment
Experimental: Inhibition of substrate phosphorylation: A functional analysis of UM101 to block p38-dependent phosphorylation of MK2 and Stat-1 was performed in HeLa cells. […] Cell extracts prepared in RIPA buffer containing protease and phosphatase inhibitors were resolved by SDS-PAGE, transferred to PVDF membrane, blocked with 5% nonfat dry milk, probed with primary antibodies against phosphorylated MK2 and Stat-1, and total p38α as a loading control. Bands were detected using secondary antibodies conjugated to infrared fluorophores and infrared fluorescence imaging (Odyssey; LICOR).

p38β = target: T2, p38β (Homo sapiens, UniProt Q15759); assay: STD-NMR with p38β; assay type: binding; conditions: 200 μM UM101, 5 μM protein
T2 construct: HA (N); made in house; host or cells: E. coli BL21
T2 sequence (Q15759 whole entry): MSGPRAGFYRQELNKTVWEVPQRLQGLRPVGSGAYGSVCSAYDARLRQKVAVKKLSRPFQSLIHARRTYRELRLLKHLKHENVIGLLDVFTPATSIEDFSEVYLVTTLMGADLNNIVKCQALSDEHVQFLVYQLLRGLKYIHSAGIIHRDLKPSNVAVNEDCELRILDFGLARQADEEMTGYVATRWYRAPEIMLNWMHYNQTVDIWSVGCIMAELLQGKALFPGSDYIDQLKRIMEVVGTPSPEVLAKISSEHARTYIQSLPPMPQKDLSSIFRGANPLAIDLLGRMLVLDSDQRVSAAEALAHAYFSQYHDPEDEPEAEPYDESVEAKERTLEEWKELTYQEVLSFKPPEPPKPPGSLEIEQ
Experimental: as §2, §3

HMVECLs [3] = assay: LDH release cytotoxicity assay; assay type: cell-based, human; conditions: 100 μM for 48 h
Experimental: as §1

p38α = p38α (Homo sapiens, UniProt Q16539); assay: Differential scanning fluorimetry (DSF), binding to p38α
Sequence of p38α (Q16539 whole entry): as the sequence (Q16539 whole entry R49K/H107T/L108F/K165R) above, with K49R, T107H, F108L, R165K counted along it

HMVECL monolayers = assay: Endothelial permeability assay (10 kDa dextran flux), TNFα/hyperthermia; assay type: cell-based, human
Experimental: Endothelial permeability assay: Permeability of HMVECL monolayers was assessed by measuring transendothelial flux of 10 kDa dextran conjugated to Cascade blue fluorescent dye for 30 min at 37° C. in Matrigel-coated 3 μm pore size Transwell plates.
The capacity of UM60 and UM101 to stabilize endothelial barriers to macromolecules and neutrophils in TNFα- and hyperthermia-stressed HMVECL monolayers was tested (FIG. 2).

ERK2 = ERK2 (Homo sapiens, UniProt P28482); assay: DSF, binding to ERK2; conditions: 10-100 μM
Sequence of ERK2 (P28482 whole entry, species assumed): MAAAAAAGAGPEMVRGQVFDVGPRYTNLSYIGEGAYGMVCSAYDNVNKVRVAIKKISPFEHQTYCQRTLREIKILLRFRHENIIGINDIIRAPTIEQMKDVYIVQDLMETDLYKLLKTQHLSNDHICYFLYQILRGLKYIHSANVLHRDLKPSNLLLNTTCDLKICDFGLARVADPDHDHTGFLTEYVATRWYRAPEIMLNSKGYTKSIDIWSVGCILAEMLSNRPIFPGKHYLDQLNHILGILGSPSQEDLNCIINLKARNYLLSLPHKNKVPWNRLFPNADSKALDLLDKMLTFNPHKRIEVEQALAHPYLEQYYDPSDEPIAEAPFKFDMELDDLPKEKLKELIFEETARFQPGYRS
Experimental: Differential Scanning Fluorimetry (DSF): Binding of CADD selected compounds to p38α and […] was tested experimentally using DSF, which evaluates changes in the target protein melting temperature (ΔTm) due to interactions with test compound. SYPRO orange (Invitrogen; diluted 1:1000 in 10 mM HEPES, 150 mM NaCl, pH 7.5) and 1 μM unphosphorylated recombinant human p38α were added to 96-well PCR plates, then 50 nM to 200 μM test compound in 100% DMSO (2% final DMSO concentration) was added, the plates mixed, sealed, centrifuged at 1000 rpm for 1 min, and melting curve performed using an Applied Biosystems real time PCR instrument. The melting point was determined from the first derivative curve. In addition, […], or target-disrupted p38α mutant are used as well.
Test compounds at 10-100 μM were screened for binding to recombinant p38α and ERK2 using DSF (FIG. 1e, Table 1).

O=C(Nc1ccc(CN2CCS(=O)(=O)CC2)cc1)c1ccc(Cl)cc1 [UM101, 4-chloro-N-{4-[(1,1-dioxo-1lambda˜6˜,4-thiazinan-4-yl)methyl]phenyl}benzamide]
toxicity in MTS assay (HMVECLs [1]): Neither compound was toxic | interaction with mutated p38α (STD-NMR) (mutated p38α): much weaker | anisomycin-stimulated phosphorylation of MK2 [2]: reduced | interaction with p38β (STD-NMR) (p38β): much weaker | toxicity in LDH release assay (HMVECLs [3]): Neither compound was toxic | stabilization of p38α (DSF) (p38α; 10-100 μM): only stabilized p38α | ΔTm at 100 µM (p38α; read-out: increase of the melting temperature of p38α): ~0.7 °C | reduction of TNFα/hyperthermia-induced permeability increase (HMVECL monolayers; 10 μM): 74% | reduction of TNFα/hyperthermia-induced permeability increase (HMVECL monolayers; 25 μM): 89% | reduction of TNFα/hyperthermia-induced permeability increase (HMVECL monolayers; 100 μM): > 100% | stabilization of ERK2 (DSF) (ERK2): not ERK2
